Measurements from US20230355597A1, “COMPOUNDS, COMPOSITIONS, AND METHODS FOR THE TREATMENT AND PREVENTION OF AVIAN PATHOGENIC E. COLI (APEC)” (OHIO STATE INNOVATION FOUNDATION, priority 2018, published 2023).
Marks after values point to notes of the source that are not given here.

Assays:
Rif^r APEC O78 [1] = experiment: In vivo screening of quorum sensing inhibitors in APEC infected broiler chickens
APEC O2 in HD-11 cells = experiment: Intracellular survival assay (AI-2 inhibitors); conditions: O2, HD-11, 100 µM, 6 h
AI-2 activity of APEC O2 = experiment: AI-2 bioluminescence indicator assay (V. harveyi BB170); conditions: APEC O2, 100 µM
AI-2 activity of APEC O8 = experiment: as above; conditions: APEC O8, 100 µM
Rif^r APEC O78 [2] = experiment: Wax moth (Galleria mellonella) larva infection model (AI-2 inhibitors); conditions: 48 h post treatment
[3] = test system: QS and virulence associated genes of APEC O78; experiment: qRT-PCR of QS-regulated and virulence factors genes; assay type: cell-based, avian pathogenic Escherichia coli (APEC); conditions: 100 µM, 10 h
Procedure: Quantitative real-time reverse transcription PCR (qRT-PCR). […] APEC O78 was grown in the presence of 100 µM of each compound in a 96-well plate at 37° C. for 10 h. APEC O78 culture treated with 1 µL of 100% DMSO was used as […]. Total RNA was extracted from duplicate wells for each compound (200 µL) using a miRNeasy Mini Kit (Qiagen). RNA quality and quantity was determined by nanodrop 2000 C spectrophotometer (Thermo scientific). Traces of DNA was removed using Genomic DNA removal mix (Qiagen). Approximately, 5 µg of purified RNA was used to synthesize cDNA using the Qiagen RT^2 First Strand Kit (Qiagen). The qRT-PCR was performed using SensiMix™ SYBER® Hi-Rox qPCR Master Mix (Bioline) according to manufacturer instructions in a realplex^2 mastercycler (Eppendorf) with 55° C. annealing temperature. Gene-specific primers were designed using PrimerQuest Tool and obtained from integrated DNA technologies (IDT). The data were normalized to the house-keeping gene, glyceraldehyde-3-phosphate dehydrogenase (GAPDH). The relative fold change was calculated using the ΔΔCt method. Three independent experiments were conducted.

[4] = test system: AI-2 activity of APEC O18; experiment: AI-2 bioluminescence indicator assay (V. harveyi BB170); conditions: APEC O18, 100 µM
[5] = test system: AI-2 activity of APEC O15; experiment: as above; conditions: APEC O15, 100 µM
[6] = test system: AI-2 activity of APEC O109; experiment: as above; conditions: APEC O109, 100 µM
AI-2 activity of APEC O1 = experiment: as above; conditions: APEC O1, 100 µM
[7] = test system: AI-2 activity of APEC O115; experiment: as above; conditions: APEC O115, 100 µM
[8] = test system: AI-2 activity of APEC O35; experiment: as above; conditions: APEC O35, 100 µM
[9] = test system: AI-2 activity of APEC O78; experiment: as above; conditions: APEC O78, 100 µM
APEC O115 = assay type: cell-based, avian pathogenic Escherichia coli (APEC); conditions: APEC O115, M63 media; MIC/MBC
APEC O35 = assay type: cell-based, avian pathogenic Escherichia coli (APEC); conditions: APEC O35, M63 media; MIC/MBC
[10] = test system: intracellular APEC O2 in THP-1 cells; experiment: Intracellular survival assay (cidal SMs); conditions: O2, THP-1, 6 h treatment; superscript = multiple of MIC
[11] = test system: intracellular APEC O78 in HD11 cells; experiment: Intracellular survival assay (cidal SMs); conditions: O78, HD11, 6 h treatment; superscript = multiple of MIC
APEC O1-63 = assay type: cell-based, avian pathogenic Escherichia coli (APEC); conditions: APEC O1-63, M63 media; MIC/MBC
[12] = test system: intracellular APEC O2 in HD11 cells; experiment: Intracellular survival assay (cidal SMs); conditions: O2, HD11, 6 h treatment; superscript = multiple of MIC
[13] = test system: intracellular APEC O78, O2, and O1 in infected Caco-2, HD11, and THP1 cells; experiment: Intracellular survival assay (cidal SMs), summary over serotypes and cells; conditions: overall ranking
[14] = test system: intracellular APEC O1 in HD11 cells; experiment: Intracellular survival assay (cidal SMs); conditions: O1, HD11, 6 h treatment; superscript = multiple of MIC
[15] = test system: intracellular APEC O78 in THP-1 cells; experiment: Intracellular survival assay (cidal SMs); conditions: O78, THP-1, 6 h treatment; superscript = multiple of MIC
APEC O78 [16] = experiment: Confocal microscopy bacterial cytological profiling; assay type: cell-based, avian pathogenic Escherichia coli (APEC); conditions: 2X MBC
Procedure: Confocal and scanning electron microscopy. Confocal microscopy was used for bacterial cytological profiling (BCP) to identify the cellular pathways targeted by SMs as described previously. […] After incubation, treated cultures were centrifuged, washed, and resuspended in 100 μL PBS. […] Cultures were then centrifuged, washed, and resuspended in PBS to 1⁄10th volume of the original cultures.

APEC O78-53 = assay type: cell-based, avian pathogenic Escherichia coli (APEC); conditions: APEC O78-53, M63 media; MIC/MBC
APEC O18 = assay type: cell-based, avian pathogenic Escherichia coli (APEC); conditions: APEC O18, M63 media; MIC/MBC
APEC O8 = assay type: cell-based, avian pathogenic Escherichia coli (APEC); conditions: APEC O8, M63 media; MIC/MBC
APEC O78 [17] = experiment: Loss of 260/280 nm absorbing materials assay; assay type: cell-based, avian pathogenic Escherichia coli (APEC); conditions: 2X MBC, 1 h, *P<0.05 vs DMSO
[18] = test system: biofilm embedded APEC O78; experiment: MBEC High-throughput assay; assay type: cell-based, avian pathogenic Escherichia coli (APEC); conditions: biofilm embedded APEC O78; superscript = multiple of MIC (footnote)
Procedure: Effect against biofilm embedded APEC. The effect of cidal SMs against biofilm embedded APEC was determined using MBEC High-throughput (HTP) assay (Innovotech Inc., AB, Canada). Briefly, 150 µL of 0.05 OD600 adjusted APEC O78 culture was aliquoted into each well of the MBEC device containing polystyrene pegs and incubated at 37° C. for 36 h in LB media under stationary condition. […] The plate was incubated in the dark for 18 h at 37° C. with rotation at 110 rpm. The DMSO (1%) and M63 media were used as positive and negative controls, respectively. Following incubation, MIC of SMs in challenged plate was recorded. The SMs exposed pegs were then transferred to a new 96-well plate containing PBS and sonicated for 30 mins (Aquasonic ultrasonic cleaner, VWR) to disrupt the biofilm. […] Biofilm embedded APEC bacteria were enumerated and minimum biofilm eradication concentration (MBEC) of […] were determined. Two independent experiments were conducted.

APEC O109 = assay type: cell-based, avian pathogenic Escherichia coli (APEC); conditions: APEC O109, M63 media; MIC/MBC
APEC O2 = assay type: cell-based, avian pathogenic Escherichia coli (APEC); conditions: APEC O2, M63 media; MIC/MBC
APEC O2-211 = assay type: cell-based, avian pathogenic Escherichia coli (APEC); conditions: APEC O2-211, M63 media; MIC/MBC
[19] = test system: intracellular APEC O78 in Caco-2 cells; experiment: Intracellular survival assay (cidal SMs); conditions: O78, Caco-2, 6 h treatment; superscript = multiple of MIC
APEC O15 = assay type: cell-based, avian pathogenic Escherichia coli (APEC); conditions: APEC O15, M63 media; MIC/MBC
[20] = test system: intracellular APEC O1 in THP-1 cells; experiment: Intracellular survival assay (cidal SMs); conditions: O1, THP-1, 6 h treatment; superscript = multiple of MIC
[21] = test system: intracellular APEC O1 in Caco-2 cells; experiment: Intracellular survival assay (cidal SMs); conditions: O1, Caco-2, 6 h treatment; superscript = multiple of MIC
APEC O78 [22] = assay type: cell-based, avian pathogenic Escherichia coli (APEC); conditions: APEC O78, M63 media; cell prints MIC/MBC
APEC O1 = assay type: cell-based, avian pathogenic Escherichia coli (APEC); conditions: APEC O1, M63 media; MIC/MBC
[23] = test system: intracellular APEC O2 in Caco-2 cells; experiment: Intracellular survival assay (cidal SMs); conditions: O2, Caco-2, 6 h treatment; superscript = multiple of MIC

With `Cc1ccc(CN2CCN(CCCc3ccccc3)CC2)cc1` [C5] the “reduction in chicken mortality” value (Rif^r APEC O78 [1]; DMSO control mortality normalized to 100%) was 100%, the “average lesion score reduction” value (Rif^r APEC O78 [1]; liver, heart, lung and airsac, vs DMSO) was 2.1-2.3 and the “reduction of bacterial load in internal organs” value (Rif^r APEC O78 [1]; liver, lung, heart, and kidney, vs DMSO control, 'up to') was 5.2-6.1 log CFU/g. For the same compound, the “Mortality rate (%)” value (Rif^r APEC O78 [1]; oral gavage once a day, day 4 to day 8, DMSO control 66.7%) was 0%, the “Reduction in APEC lesions severity, Air-sacs (%)” value (Rif^r APEC O78 [1]; vs DMSO treated control) was 93.3% and the “Reduction in APEC lesions severity, Heart (%)” value (Rif^r APEC O78 [1]; vs DMSO treated control) was 87.5%. For the same compound, the “Reduction in APEC lesions severity, Liver (%)” value (Rif^r APEC O78 [1]; vs DMSO treated control) was 81.8%, the “Reduction in APEC lesions severity, Lung (%)” value (Rif^r APEC O78 [1]; vs DMSO treated control) was 88.9% and the “effect on body weight gain” value (Rif^r APEC O78 [1]; vs non-treated and non-infected control group) was “increased BWG”. The “clearance of intracellular APEC” value (APEC O2 in HD-11 cells) was 100%, the “reduction of intracellular survival” value (APEC O2 in HD-11 cells; vs DMSO) was 3.3 logs and the “Inhibition % of AI-2 activity” value (AI-2 activity of APEC O2) was 89%. The “Inhibition % of AI-2 activity” value (AI-2 activity of APEC O8) was 18%, the larval death (Rif^r APEC O78 [2]) was “no larval death” and the “expression of fliP” value [3] was “down-regulated”. For the same compound, the expression of fpr [3] was “down-regulated”, the “Inhibition % of AI-2 activity” value [4] was 61% and the “Inhibition % of AI-2 activity” value [5] was 45%. The “Inhibition % of AI-2 activity” value [6] was 69%, the “Inhibition % of AI-2 activity” value (AI-2 activity of APEC O1) was 46% and the “Inhibition % of AI-2 activity” value [7] was 63%. For the same compound, the “Inhibition % of AI-2 activity” value [8] was 68% and the “Inhibition % of AI-2 activity” value [9] was 83%.
Work on `CC1CCC(C(C)C)C(OC(=O)Cn2c[n+](CC(=O)OC3CC(C)CCC3C(C)C)c3ccccc32)C1.[Cl-]` (stereo not shown) [SM4] yielded an MBC (APEC O115) of 25 µM, an MIC (APEC O115) of 25 µM and an MBC (APEC O35) of 25 µM. The MIC (APEC O35) was 25 µM, the “SMs intracellular APEC clearance concentration” value [10] was 100^c µM and the “SMs intracellular APEC clearance concentration” value [11] was 50^b µM. For the same compound, the MBC (APEC O1-63) was 50 µM, the MIC (APEC O1-63) was 25 µM and the “SMs intracellular APEC clearance concentration” value [12] was 50^b µM. For the same compound, the “effectiveness in clearing intracellular APEC serotypes in all tested cells” value [13] was “most effective”, the “SMs intracellular APEC clearance concentration” value [14] was 50^b µM and the “SMs intracellular APEC clearance concentration” value [15] was 56^b µM. For the same compound, the “cytological profile (confocal, FM4-64 / SYTO-9)” value (APEC O78 [16]) was “membrane disruptors”, the MBC (APEC O78-53) was 50 µM and the MIC (APEC O78-53) was 25 µM. For the same compound, the MBC (APEC O18) was 50 µM, the MIC (APEC O18) was 25 µM and the MBC (APEC O8) was 25 µM. For the same compound, the MIC (APEC O8) was 25 µM, the “Absorbance 260” value (APEC O78 [17]; 260 nm absorbing material in supernatant) was 3.91* and the “Absorbance 280” value (APEC O78 [17]; 280 nm absorbing material in supernatant) was 2.69*. The MBEC [18] was 25^a µM, the MBC (APEC O109) was 25 µM and the MIC (APEC O109) was 25 µM. For the same compound, the MBC (APEC O2) was 50 µM, the MIC (APEC O2) was 25 µM and the MBC (APEC O2-211) was 25 µM. The MIC (APEC O2-211) was 25 µM, the “SMs intracellular APEC clearance concentration” value [19] was 50^b µM and the MBC (APEC O15) was 25 µM. For the same compound, the MIC (APEC O15) was 25 µM, the “SMs intracellular APEC clearance concentration” value [20] was over 100 µM and the “SMs intracellular APEC clearance concentration” value [21] was 100^c µM. The MBC (APEC O78 [22]) was 50 µM, the MIC (APEC O78 [22]) was 25 µM and the MBC (APEC O1) was 50 µM. The MIC (APEC O1) was 25 µM and the “SMs intracellular APEC clearance concentration” value [23] was 100^c µM.
